# Test results reported in EP4813403A1, “USE OF GLP-1R/GIPR DOUBLE-TARGET AGONIST IN PREPARING ANIMAL DRUG” (Hangzhou Zhongmeihuadong Pharmaceutical Co., Ltd., priority 2023, dated 2025).
# Columns and labels:
# [1] = test system: obese dogs; experiment: Weight loss efficacy in obese dogs; format: in vivo; conditions: for SFV, change rate in abdominal fat indicators / TFV, change rate in abdominal fat indicators / VFV, change rate in abdominal fat indicators / rSFV, change rate in abdominal fat indicators / rVFV, change rate in abdominal fat indicators: Mean±SEM
# Method: In this study, the compound of the present invention was administered subcutaneously to obese dogs multiple times to detect changes in their body weights and elucidate the weight loss effect of the compound. Obese dogs aged 8 months or older with a body condition score (BCS) ≥6 were used in this study. The dogs were housed in appropriately sized cages under controlled environmental conditions with a room temperature of 20-26°C and a relative humidity of 40%-70%, and had free access to food and water. Experimental dogs with similar body weights and BCSs (body weight: 15~24 kg, BCS: 6~9) were randomly divided into four groups (n=6 per group): G1, G2, G3, and G4. Group G1 served as the vehicle control group. […] For Group G2 obese dogs, the first dose (4 nmol/kg) was administered on Day 1 (D1) and Day 8 (D8), adjusted to the second dose (6 nmol/kg) on Day 15 (D15), and further adjusted to the third dose ([…]) on Day 22 (D22), which third dose (96 nmol/kg) was maintained for the subsequent administrations on Day 29 (D29) and Day 36 (D36). For Group G3 obese dogs, the first dose (12 nmol/kg) was administered on D1 and D8, adjusted to the second dose (19 nmol/kg) on D15, and further adjusted to the third dose ([…]) on D22, which third dose (385 nmol/kg) was also maintained for the subsequent administrations on D29 and D36. For Group G4 dogs, the positive control Dirlotapide was administered orally at a dose of 0.5 mg/kg once per day (QD) for 42 consecutive days.
# After administration, the body weights of dogs in Group G4 receiving Dirlotapide were measured at a fixed time once daily, while the body weights of dogs in the other groups (G1, G2, and G3) were measured at a fixed time once every 7 days. Food intake was measured once per day after administration. Blood tests for routine and biochemical parameters were conducted before grouping and on D43. Imaging examinations of abdominal fat volume were performed before grouping and from D43 to D45 to measure total abdominal fat volume (TFV) and visceral abdominal fat volume (VFV), and to calculate subcutaneous abdominal fat (SFV). Body condition score (BCS), body mass index (BMI), and abdominal circumference (AC) were measured once a week. The data were statistically analyzed using ANOVA. If ANOVA was statistically significant (p < 0.05) and variances were homogeneous, Tukey's test was used for intergroup comparison. If variances were heterogeneous, Dunnet's T3 test was used. Results were expressed as mean ± standard error of the mean (Mean ± SEM). The significance level was set at 0.05, and both statistical and biological significance were considered in the analysis.
# [2] = molecular target: T1, rabbit GIPR (Oryctolagus cuniculus, UniProt G1T265); experiment: Agonistic activity on GIPR of different species (LANCE Ultra cAMP assay): rabbit; format: cell-based; conditions: ratio of EC50 value of other species to human EC50 value
# T1 construct: expressed in transfected cells; host or cells: CHO-K1 (transient)
# T1 sequence (G1T265 23-468): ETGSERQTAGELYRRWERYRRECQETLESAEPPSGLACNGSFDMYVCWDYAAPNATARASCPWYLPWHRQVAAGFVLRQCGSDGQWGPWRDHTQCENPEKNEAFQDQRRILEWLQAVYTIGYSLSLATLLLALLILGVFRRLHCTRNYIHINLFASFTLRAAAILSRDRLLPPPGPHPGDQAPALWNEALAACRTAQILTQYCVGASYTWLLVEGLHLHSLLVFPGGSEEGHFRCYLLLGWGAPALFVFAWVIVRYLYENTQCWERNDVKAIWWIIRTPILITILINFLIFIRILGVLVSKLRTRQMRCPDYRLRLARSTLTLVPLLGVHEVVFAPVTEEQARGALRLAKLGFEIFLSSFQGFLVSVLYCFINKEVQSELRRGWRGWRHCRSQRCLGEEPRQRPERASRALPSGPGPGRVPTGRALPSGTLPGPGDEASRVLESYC
# Method: (§1) CHO-K1 cells were seeded in a 6-well plate at 0.6×10^6 cells/well and incubated overnight in an incubator at a temperature of 37 °C and a carbon dioxide concentration of 5%. The next day, CHO-K1 cell media were replaced. Then two tubes A and B were prepared for each plasmid. 100 µL Opti-MEM was added to tube A, then 4 µL Lipofectamine™ 3000 was added and mixed uniformly. 100 µL Opti-MEM was firstly added to tube B, then 2 µg of one of the plasmids (human GIPR-pcDNA5 (+) plasmid, dog GIPR-pcDNA5 (+) plasmid, mouse GIPR-pcDNA5 (+) plasmid, rat GIPR-pcDNA5 (+) plasmid, rabbit GIPR-pcDNA5 (+) plasmid, monkey GIPR-pcDNA5 (+) plasmid) was added and mixed uniformly, and 4 µL P3000™ was added to tube B and mixed uniformly (the ratio of plasmid to transfection reagent was 1 µg: 2 µL). […]
# (§2) 18-20 hours after transfection, human GIPR-CHO, dog GIPR-CHO, mouse GIPR-CHO, rat GIPR-CHO, rabbit GIPR-CHO, and monkey GIPR-CHO cells were resuspended in 1×Casein Stimulation Buffer (HBSS, 5 mM HEPES, 0.5 mM IBMX, 0.1% casein, pH7.4), and seeded into a 384-well cell culture plate at 9 µL/well (cell numbers being 1000, 2000, 2000, 2000, 2000, 2000 cells/well, respectively). […] The readings at 665 nm and 620 nm were determined with a 330 nm excitation light on a microplate reader. The 665 nm/620 nm reading ratio was calculated. […]
# [3] = test system: monkey GIPR; experiment: Agonistic activity on GIPR of different species (LANCE Ultra cAMP assay): monkey; format: cell-based; conditions: ratio of EC50 value of other species to human EC50 value
# Method: as §1, §2
# [4] = D43, 4/6/96 nmol/kg s.c. QW, six administrations
# [5] = D43, 12/19/385 nmol/kg s.c. QW, six administrations
smiles,measurement,setting,value
CC[C@H](C)[C@H](NC(=O)C(C)(C)NC(=O)[C@H](Cc1ccc(O)cc1)NC(=O)[C@H](CC(=O)O)NC(=O)[C@H](CO)NC(=O)[C@@H](NC(=O)C(C)(Cc1ccccc1)NC(=O)[C@@H](NC(=O)CNC(=O)[C@H](CCC(=O)O)NC(=O)C(C)(C)NC(=O)[C@@H](N)Cc1ccc(O)cc1)[C@@H](C)O)[C@@H](C)O)C(=O)NC(C)(C)C(=O)N[C@@H](CC(C)C)C(=O)N[C@@H](CC(=O)O)C(=O)N[C@@H](CCCCN)C(=O)N[C@@H](CCC(N)=O)C(=O)N[C@@H](C)C(=O)N[C@@H](CCC(N)=O)C(=O)N[C@@H](C)C(=O)N[C@@H](CCC(=O)O)C(=O)N[C@@H](Cc1ccccc1)C(=O)N[C@H](C(=O)N[C@@H](CCCCNC(=O)COCCOCCNC(=O)COCCOCCNC(=O)COCCOCCNC(=O)CC[C@H](NC(=O)CCCCCCCCCCCCCCCCCCCCC(=O)O)C(=O)O)C(=O)N[C@@H](Cc1c[nH]c2ccccc12)C(=O)N[C@@H](CC(C)C)C(=O)N[C@@H](CC(C)C)C(=O)N[C@@H](CCCCN)C(=O)NCC(=O)NCC(=O)N1CCC[C@H]1C(=O)N[C@@H](CO)C(=O)N[C@@H](CO)C(=O)NCC(=O)N[C@@H](C)C(=O)N1CCC[C@H]1C(=O)N1CCC[C@H]1C(=O)N1CCC[C@H]1C(=O)N[C@@H](CO)C(=O)N[C@@H](CCCCN)C(N)=O)C(C)C (stereo partly drawn) [Compound P016],"SFV, change rate in abdominal fat indicators",[1]; [4],-18.11±4.49
same,"TFV, change rate in abdominal fat indicators",[1]; [4],-16.16±5.88
same,"VFV, change rate in abdominal fat indicators",[1]; [4],-10.81±10.19
same,"rSFV, change rate in abdominal fat indicators",[1]; [4],4.80±6.52
same,"rVFV, change rate in abdominal fat indicators",[1]; [4],-1.51±3.56
same,"SFV, change rate in abdominal fat indicators",[1]; [5],-15.14±4.56
same,"TFV, change rate in abdominal fat indicators",[1]; [5],-13.00±4.47
same,"VFV, change rate in abdominal fat indicators",[1]; [5],-9.42±5.39
same,"rSFV, change rate in abdominal fat indicators",[1]; [5],4.19±4.19
same,"rVFV, change rate in abdominal fat indicators",[1]; [5],-2.41±2.12
same,effective dose for weight loss,[1]; s.c. QW escalating doses,96 nmol/kg
same,effective dose for weight loss,"[1]; s.c. QW escalating doses, equivalent of the nmol/kg dose",0.5 mg/kg
same,maximum weight loss,"[1]; s.c. QW escalating doses, six administrations",9.51%
same,GIPR EC50 ratio,[2],5.34
same,GIPR EC50 ratio,[3],5.77
